According to patent US8901118B2, “Compounds and methods for kinase modulation, and indications therefor” (Plexxikon Inc., priority 2010, dated 2014):

Experiments:
[1] = molecular target: T1, BCR-KIT BaF3 cells (Homo sapiens, UniProt P10721); assay: BaF3 BCR-KIT cell proliferation assay (ATPlite); format: cell-based; conditions: read-out: Inhibition of Cell Proliferation IC50, BCR/BaF3 Kit
T1 construct: fused on or other part: P11274 (Breakpoint cluster region protein)
Method: Compounds are assessed in a variety of cell based assays. For example BaF3 cells engineered with any of BCR-FMS, BCR-KIT, BCR-FLT3, BCR-NTRK1, BCR-NTRK2, and BCR-NTRK3, are used in cell proliferation assays to assess inhibitory activity of Fms, Kit, Flt-3, TrkA, TrkB, and TrkC, respectively. An MV-4-11 (leukemia) cell proliferation assay is used to assess inhibitory activity in Flt-3, and SKNSH (human neuroblastoma) cell proliferation assay is used to assess efficacy of Fms/Trk inhibitors. Additional cells may be assayed similarly to assess the efficacy of Fms/Trk inhibitors, such as MiaPaCa (human pancreatic cancer) and Capan-1 (human pancreatic carcinoma) cells. Reagent and assay conditions are as follows: • BaF3 cells: • Maintained in RPMI containing 10% FBS, 1% PenStrep, 1% NEAA, and 1% L-Glutamine, supplemented with 1 mg/mL G418 and 5% WEHI-CM (or recombinant murine IL-3). • Confluent cells are split 1:50 to 1:100 every 3-4 days. • MV-4-11 cells: • Maintained in Iscove's Modified Dulbecco's Medium containing 10% FBS. • Confluent cells are split 1:4 every 3-4 days. • SKNSH cells: RPMI containing 10% FBS. On day 1, cells are counted, then centrifuged in a conical tube for 5 minutes at 1000 rpm. The supernatant is removed and cells are re-suspended as follows: • BaF3: resuspend in growth media +1 mg/mL G418 (without WEHFIL-3) to 2×10^5 cells/mL. • MV-4-11: resuspend in growth media to 5×10^5 cells/mL. • SKNSH: resuspend in growth media to 2×10^4 cells/mL. The cells are plated (50 μL, 150 μL for SKNSH cells) in each well of a 96-well dish (Corning 3610) and incubated at 37° C. in 5% CO2 overnight, cells plated to a final concentration of cells as follows: • BaF3: 10,000 cells per well. • MV-4-11: 25,000 cells per well. • SKNSH: 3,000 cells per well. On day 2, compound at a maximum concentration of 5 mM is serially diluted 1:3 for a total of 8 point titration with DMSO as a control. A 1 μL aliquot of each dilution point is added to 249 μL growth media and 50 μL is added to a well containing cells, providing 10 μM compound for the maximum concentration point. The cells are incubated for 3 days at 37° C. in 5% CO2. For SKNSH cells, a 0.75 μL aliquot of appropriate dilution in DMSO is added to 150 μL of cells. On day 5, ATPlite 1 step Luminescence Assay System (Perkin Elmer #6016739) is brought to room temperature along with the cell cultures. ATPlite is added to each well as follows: • BaF3: 25 μL per well. • MV-4-11: 40 μL per well. • SKNSH: 20 μL per well. The cells are incubated at room temperature for 10 minutes, then luminescence is read on Safire reader. The measured luminescence correlates directly with cell number, such that the reading as a function of compound concentration is used to determine the IC50 value.
It is understood that the results of these assays may vary as assay conditions are varied. Inhibition levels determined under the conditions described herein represent a relative activity for the compounds tested under the specific conditions employed. The cell based assays are likely to show variability due to the complexity of the system and the sensitivity thereof to any changes in the assay conditions. […] Results for compounds that are tested and show substantially no inhibition below the highest tested concentration are represented as “-” in the tables below. In some instances, the compounds were not tested in all of the assays, or assay results were not valid, as indicated by NA in the tables below.

[2] = molecular target: TrkA kinase (Homo sapiens, UniProt P04629); assay: TrkA kinase biochemical activity assay (AlphaScreen); conditions: 100 μM ATP; read-out: Biochemical Inhibition IC50 TrkA
Sequence of TrkA kinase (P04629 33-796): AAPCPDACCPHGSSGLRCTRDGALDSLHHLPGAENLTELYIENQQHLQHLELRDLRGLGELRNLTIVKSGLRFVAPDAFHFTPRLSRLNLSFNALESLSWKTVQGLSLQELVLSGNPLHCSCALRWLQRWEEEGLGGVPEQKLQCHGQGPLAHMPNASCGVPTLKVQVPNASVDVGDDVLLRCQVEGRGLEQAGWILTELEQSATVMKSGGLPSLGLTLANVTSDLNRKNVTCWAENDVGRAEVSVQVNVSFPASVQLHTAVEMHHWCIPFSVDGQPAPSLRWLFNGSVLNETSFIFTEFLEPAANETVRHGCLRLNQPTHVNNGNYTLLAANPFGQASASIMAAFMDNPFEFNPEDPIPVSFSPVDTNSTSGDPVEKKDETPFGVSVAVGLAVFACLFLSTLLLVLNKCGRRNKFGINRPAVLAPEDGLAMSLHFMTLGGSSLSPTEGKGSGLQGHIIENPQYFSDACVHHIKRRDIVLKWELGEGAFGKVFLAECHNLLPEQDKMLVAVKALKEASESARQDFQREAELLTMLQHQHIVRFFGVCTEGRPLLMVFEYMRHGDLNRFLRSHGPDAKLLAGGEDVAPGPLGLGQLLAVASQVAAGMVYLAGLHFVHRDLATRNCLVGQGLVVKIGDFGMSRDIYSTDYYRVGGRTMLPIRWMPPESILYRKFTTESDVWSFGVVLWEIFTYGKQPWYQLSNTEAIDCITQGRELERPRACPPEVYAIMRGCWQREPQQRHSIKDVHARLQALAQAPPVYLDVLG
Method: In one assay the biochemical activity IC50 values are determined with respect to inhibition of TrkA kinase activity, where inhibition of phosphorylation of a peptide substrate is measured as a function of compound concentration. Compounds to be tested, dissolved in DMSO (1 μL), are added to a white 384-well plate (Costar #3705). Working stocks of TrkA kinase (UBI), biotin-(E4Y)10 substrate (Upstate Biotech, Cat#12-440), and ATP (Sigma, Cat#A-3377) are prepared in 25 mM Hepes pH 7.5, 10 mM MnCl2, 1 mM DTT, 0.01% BSA, and 0.01% Tween-20. All components are added to the 384-well plate for a final concentration of 1 ng/well TrkA, 30 nM biotin-(E4Y)10 and 100 μM ATP in a volume of 20 μL. Each sample is at 5% DMSO. The plate is shaken for 1 minute at 1200 rpm, spun for 1 minute at 1000 rpm, then incubated for 40 minutes at room temperature. Just before use, working stocks of donor and acceptor beads from the AlphaScreen PY20 Detection Kit (PerkinElmer, Cat#676601M) are prepared in 25 mM Hepes pH 7.5, 100 mM EDTA. 0.01% BSA. Donor Beads solution (Streptavidin beads) is added (5 μL) to each well to final bead concentration of 10 μg/mL. The plate is incubated at room temperature for 20 minutes. Acceptor Beads solution (PY20 coated beads) are then added to each well (5 μL) to a final concentration of bead at 10 μg/mL. The plates are incubated at room temperature for 60 minutes. Fluorescence signal is recorded on the Envision reader. Phosphorylated substrate results in binding of the PY20 antibody and association of the donor and acceptor beads such that signal correlates with kinase activity. The signal vs. compound concentration is used to determine the IC50. Similar assays are used for TrkB and Trk C kinase.

T1 sequence (P10721 589-937): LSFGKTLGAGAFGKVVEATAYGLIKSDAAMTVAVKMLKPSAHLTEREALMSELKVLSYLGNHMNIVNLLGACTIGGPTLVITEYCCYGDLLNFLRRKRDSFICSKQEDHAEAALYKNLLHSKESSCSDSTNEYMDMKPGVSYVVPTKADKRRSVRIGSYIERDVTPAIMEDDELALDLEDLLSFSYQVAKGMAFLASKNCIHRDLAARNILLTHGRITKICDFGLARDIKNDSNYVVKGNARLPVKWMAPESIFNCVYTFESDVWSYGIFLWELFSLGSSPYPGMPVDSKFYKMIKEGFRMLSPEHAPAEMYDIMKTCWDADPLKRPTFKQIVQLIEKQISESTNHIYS

IC50 [1]	IC50 [2]	SMILES
< 100 nM	< 10 nM	COc1ccc(Nc2ccc(C(=O)c3c[nH]c4ncnc(NC5CCCC5)c34)c(F)n2)cn1 [Compound P-4075, [4-(cyclopentylamino)-7H-pyrrolo[2,3-d]pyrimidin-5-yl]-[2-fluoro-6-[(6-methoxy-3-pyridyl)amino]-3-pyridyl]methanone]
< 100 nM	< 10 nM	CCNc1ncnc2[nH]cc(C(=O)c3ccc(Nc4ccc(OC)nc4)nc3F)c12 [Compound P-4081, [4-(ethylamino)-7H-pyrrolo[2,3-d]pyrimidin-5-yl]-[2-fluoro-6-[(6-methoxy-3-pyridyl)amino]-3-pyridyl]methanone]
< 100 nM	< 10 nM	COc1ccc(Nc2ccc(C(=O)c3c[nH]c4ncnc(NC5CCCCC5)c34)c(F)n2)cn1 [Compound P-4082, [4-(cyclohexylamino)-7H-pyrrolo[2,3-d]pyrimidin-5-yl]-[2-fluoro-6-[(6-methoxy-3-pyridyl)amino]-3-pyridyl]methanone]
> 1000 nM	< 10 nM	CNc1ncnc2[nH]cc(C(=O)c3ccc(Nc4ccc(OC)nc4)nc3OC)c12 [Compound P-4085, [2-methoxy-6-[(6-methoxy-3-pyridyl)amino]-3-pyridyl]-[4-(methylamino)-7H-pyrrolo[2,3-d]pyrimidin-5-yl]methanone]
> 1000 nM	< 10 nM	O=C(c1ccc(NC2CCC(F)(F)CC2)nc1)c1c[nH]c2ncnc(NCC(F)(F)F)c12 [Compound P-4087, [6-[(4,4-difluorocyclohexyl)amino]-3-pyridyl]-[4-(2,2,2-trifluoroethylamino)-7H-pyrrolo[2,3-d]pyrimidin-5-yl]methanone]
< 1000 nM	< 10 nM	O=C(c1ccc(NC2CCC(F)(F)CC2)nc1)c1c[nH]c2ncnc(NC3CC3)c12 [Compound P-4088, [4-(cyclopropylamino)-7H-pyrrolo[2,3-d]pyrimidin-5-yl]-[6-[(4,4-difluorocyclohexyl)amino]-3-pyridyl]methanone]

Further lines, the compound ahead of its results:

SMILES	IC50 [1]	IC50 [2]
COc1ccc(Nc2ccc(C(=O)c3c[nH]c4ncnc(NC5CCC5)c34)c(F)n2)cn1 [Compound P-4076, [4-(cyclobutylamino)-7H-pyrrolo[2,3-d]pyrimidin-5-yl]-[2-fluoro-6-[(6-methoxy-3-pyridyl)amino]-3-pyridyl]methanone]	< 100 nM	< 10 nM
CCC(CC)Nc1ncnc2[nH]cc(C(=O)c3ccc(Nc4ccc(OC)nc4)nc3F)c12 [Compound P-4077, [4-(1-ethylpropylamino)-7H-pyrrolo[2,3-d]pyrimidin-5-yl]-[2-fluoro-6-[(6-methoxy-3-pyridyl)amino]-3-pyridyl]methanone]	< 100 nM	< 10 nM
CCC(C)Nc1ncnc2[nH]cc(C(=O)c3ccc(Nc4ccc(OC)nc4)nc3F)c12 (stereo not drawn) [Compound P-4078, [2-fluoro-6-[(6-methoxy-3-pyridyl)amino]-3-pyridyl]-[4-(sec-butylamino)-7H-pyrrolo[2,3-d]pyrimidin-5-yl]methanone]	< 100 nM	< 10 nM
COCCCNc1ncnc2[nH]cc(C(=O)c3ccc(Nc4ccc(OC)nc4)nc3F)c12 [Compound P-4079, [2-fluoro-6-[(6-methoxy-3-pyridyl)amino]-3-pyridyl]-[4-(3-methoxypropylamino)-7H-pyrrolo[2,3-d]pyrimidin-5-yl]methanone]	< 100 nM	< 10 nM
CCCCNc1ncnc2[nH]cc(C(=O)c3ccc(Nc4ccc(OC)nc4)nc3F)c12 [Compound P-4080, [4-(butylamino)-7H-pyrrolo[2,3-d]pyrimidin-5-yl]-[2-fluoro-6-[(6-methoxy-3-pyridyl)amino]-3-pyridyl]methanone]	< 100 nM	< 10 nM
CNc1ncnc2[nH]cc(C(=O)c3ccc(Nc4ccc(OC)nc4)nc3F)c12 [Compound P-4083, [2-fluoro-6-[(6-methoxy-3-pyridyl)amino]-3-pyridyl]-[4-(methylamino)-7H-pyrrolo[2,3-d]pyrimidin-5-yl]methanone]	< 100 nM	< 10 nM
